Assay results: patent US20250313533A1, “QUINOLINE CARBOXYLIC ACID ESTER COMPOUND AND PREPARATION METHOD AND USE THEREOF” (priority 2019, published 2025)

Assays:
[1] = system: pathogenic bacteria causing bacterial angular leaf spot in cucumbers; test: In vitro bactericidal activity, bacterial angular leaf spot in cucumbers; format: cell-based, pseudomonas; details: read-out: inhibitory rate; for inhibition at 1 ppm: dosage 1 ppm; for inhibition at 5 ppm: dosage 5 ppm
Method: (§1) Under aseptic conditions, equal amounts of NB culture medium were added to test tubes, and fixed amounts of the sample solutions were pipetted into the above test tubes in an ascending order of concentrations, respectively. The mixtures were well mixed and added with equal amounts of a bacterial suspension in log phase.
(§2) Each step of the procedure was repeated 4 times. After mixing, the mixture samples were incubated in the dark in a shaking incubator at 25° C. The OD values were measured when the bacteria were in log phase.

[2] = system: pathogenic bacteria causing bacterial wilt in cassava; test: organism not typed; format: cell-based; details: read-out: inhibitory rate
[3] = system: soft rot in Chinese cabbages; test: whole plant or invertebrate; details: 48 h, read-out: efficacy against soft rot in Chinese cabbages
[4] = system: pathogenic bacteria causing fruit blotch in watermelons; test: In vitro bactericidal activity, fruit blotch in watermelons; format: cell-based, acidovorax; details: read-out: inhibitory rate; for inhibition at 1 ppm: dosage 1 ppm; for inhibition at 5 ppm: dosage 5 ppm
Method: as §1, §2

[5] = system: pathogenic bacteria causing bacterial wilt in tobacco; test: whole plant or invertebrate; format: cell-based, ralstonia; details: read-out: inhibitory rate
[6] = system: fruit blotch in watermelons; test: whole plant or invertebrate; details: read-out: efficacy against fruit blotch in watermelons
[7] = system: cucumber seedlings; test: Safety for plant growth after application; format: in vivo; details: dosage 200 ppm
Excerpt: Taking indoor potted cucumber seedlings as an example, the influence of the compound disclosed herein on growth rate of plant height, chlorophyll content, leaf area, etc. of crops was mainly evaluated.
The results of safety and health-care effect of the compounds of the present disclosure on cucumber seedlings are shown in the following table 1: […]

[8] = system: pathogenic bacteria causing black rot in Chinese cabbages; test: In vitro bactericidal activity, black rot in Chinese cabbages; format: cell-based, xanthomonas; details: Xanthomonas, read-out: inhibitory rate; for inhibition at 1 ppm: dosage 1 ppm; for inhibition at 5 ppm: dosage 5 ppm
Method: as §1, §2

[9] = system: black shank in potatoes; test: Living crops in vivo protective activity, potatoes (root irrigation); details: Solanum tuberosum, read-out: efficacy against black shank in potatoes; for pest or weed control at 5 ppm: dosage 5 ppm; for pest or weed control at 10 ppm: dosage 10 ppm
Method: Root irrigation was carried out on the potatoes for tests according to the designed concentration of the agents. The dosage for each plant was 200 mL and was kept consistent (also for the control). The black shank bacteria were inoculated on the second day after the application. The results were investigated according to the disease condition.

[10] = system: pathogenic bacteria causing bacterial blight in rice; test: whole plant or invertebrate; format: cell-based, xanthomonas; details: read-out: inhibitory rate
[11] = system: pathogenic bacteria causing stem rot in sweet potatoes; test: In vitro bactericidal activity, stem rot in sweet potatoes; format: cell-based, dikia; details: read-out: inhibitory rate; for inhibition at 1 ppm: dosage 1 ppm; for inhibition at 5 ppm: dosage 5 ppm
Method: as §1, §2

[12] = system: bacterial blight in rice; test: whole plant or invertebrate; details: Oryza sativa, read-out: efficacy against bacterial blight in rice
[13] = system: pathogenic bacteria causing fire blight in pears; test: In vitro bactericidal activity, fire blight in pears; format: cell-based, erwinia; details: Erwinia, read-out: inhibitory rate; for inhibition at 1 ppm: dosage 1 ppm; for inhibition at 5 ppm: dosage 5 ppm
Method: as §1, §2

[14] = system: bacterial wilt in tobacco; test: whole plant or invertebrate; details: Nicotiana tabacum, read-out: efficacy against bacterial wilt in tobacco
[15] = system: pathogenic bacteria causing black shank in potatoes; test: In vitro bactericidal activity, black shank in potatoes; format: cell-based; details: read-out: inhibitory rate; for inhibition at 1 ppm: dosage 1 ppm; for inhibition at 5 ppm: dosage 5 ppm
Method: as §1, §2

[16] = system: stem rot in sweet potatoes; test: whole plant or invertebrate; details: read-out: efficacy against stem rot in sweet potatoes

Compound | inhibition at 1 ppm [1] [%] | inhibition at 5 ppm [1] [%] | inhibition at 1 ppm [2] [%] | inhibition at 5 ppm [2] [%] | pest or weed control at 5 ppm [3] [%] | pest or weed control at 10 ppm [3] [%] | inhibition at 1 ppm [4] [%] | inhibition at 5 ppm [4] [%] | inhibition at 1 ppm [5] [%] | inhibition at 5 ppm [5] [%] | pest or weed control at 5 ppm [6] [%] | pest or weed control at 10 ppm [6] [%] | safety for plant growth (discoloration, necrosis, wilt, malformation) [7] | inhibition at 1 ppm [8] [%] | inhibition at 5 ppm [8] [%] | pest or weed control at 5 ppm [9] [%] | pest or weed control at 10 ppm [9] [%] | inhibition at 1 ppm [10] [%] | inhibition at 5 ppm [10] [%] | inhibition at 1 ppm [11] [%] | also measured
O=C(OCCO)c1cn(C2CC2)c2cc(OCC(F)(F)F)ccc2c1=O [Compound 360] | ≥ 80 | ≥ 90 | ≥ 80 | ≥ 90 | ≥ 80 | ≥ 90 | ≥ 80 | ≥ 90 | ≥ 80 | ≥ 90 | ≥ 90 | ≥ 90 | safe for plant growth | ≥ 80 | ≥ 90 | ≥ 80 | ≥ 90 | ≥ 80 | ≥ 90 | ≥ 80 | inhibition at 5 ppm [11]: ≥ 90%; pest or weed control at 5 ppm [12]: ≥ 80%; pest or weed control at 10 ppm [12]: ≥ 90%; inhibition at 1 ppm [13]: ≥ 80%; inhibition at 5 ppm [13]: ≥ 90%; pest or weed control at 5 ppm [14]: ≥ 90%; pest or weed control at 10 ppm [14]: ≥ 90%; inhibition at 1 ppm [15]: ≥ 80%; inhibition at 5 ppm [15]: ≥ 90%; pest or weed control at 5 ppm [16]: ≥ 90%; pest or weed control at 10 ppm [16]: ≥ 90%
O=C(OCCOC1CC1)c1cn(C2CC2)c2cc(Cl)c(F)cc2c1=O [Compound 160] | ≥ 80 | ≥ 90 | ≥ 80 | ≥ 90 | ≥ 80 | ≥ 90 | ≥ 80 | ≥ 90 | ≥ 80 | ≥ 90 | ≥ 90 | ≥ 90 | safe for plant growth | ≥ 80 | ≥ 90 | ≥ 80 | ≥ 90 | ≥ 80 | ≥ 90 | ≥ 80 | inhibition at 5 ppm [11]: ≥ 90%; pest or weed control at 5 ppm [12]: ≥ 80%; pest or weed control at 10 ppm [12]: ≥ 90%; inhibition at 1 ppm [13]: ≥ 80%; inhibition at 5 ppm [13]: ≥ 90%; pest or weed control at 5 ppm [14]: ≥ 90%; pest or weed control at 10 ppm [14]: ≥ 90%; inhibition at 1 ppm [15]: ≥ 80%; inhibition at 5 ppm [15]: ≥ 90%; pest or weed control at 5 ppm [16]: ≥ 90%; pest or weed control at 10 ppm [16]: ≥ 90%
O=C(OCCCO)c1cn(C2CC2)c2ccc(F)cc2c1=O [Compound 18] | ≥ 80 | ≥ 90 | ≥ 80 | ≥ 90 | ≥ 80 | ≥ 90 | ≥ 80 | ≥ 90 | ≥ 80 | ≥ 90 | ≥ 90 | ≥ 90 | safe for plant growth | ≥ 80 | ≥ 90 | ≥ 80 | ≥ 90 | ≥ 80 | ≥ 90 | ≥ 80 | inhibition at 5 ppm [11]: ≥ 90%; pest or weed control at 5 ppm [12]: ≥ 80%; pest or weed control at 10 ppm [12]: ≥ 90%; inhibition at 1 ppm [13]: ≥ 80%; inhibition at 5 ppm [13]: ≥ 90%; pest or weed control at 5 ppm [14]: ≥ 90%; pest or weed control at 10 ppm [14]: ≥ 90%; inhibition at 1 ppm [15]: ≥ 80%; inhibition at 5 ppm [15]: ≥ 90%; pest or weed control at 5 ppm [16]: ≥ 90%; pest or weed control at 10 ppm [16]: ≥ 90%
O=C(OCCCCO)c1cn(C2CC2)c2cc(Cl)c(F)cc2c1=O [Compound 177] | ≥ 90 | ≥ 90 | ≥ 90 | ≥ 90 | ≥ 90 | ≥ 90 | ≥ 90 | ≥ 90 | ≥ 90 | ≥ 90 | ≥ 90 | ≥ 90 | safe for plant growth | ≥ 90 | ≥ 90 | ≥ 90 | ≥ 90 | ≥ 80 | ≥ 90 | ≥ 90 | inhibition at 5 ppm [11]: ≥ 90%; pest or weed control at 5 ppm [12]: ≥ 80%; pest or weed control at 10 ppm [12]: ≥ 90%; inhibition at 1 ppm [13]: ≥ 90%; inhibition at 5 ppm [13]: ≥ 90%; pest or weed control at 5 ppm [14]: ≥ 90%; pest or weed control at 10 ppm [14]: ≥ 90%; inhibition at 1 ppm [15]: ≥ 90%; inhibition at 5 ppm [15]: ≥ 90%; pest or weed control at 5 ppm [16]: ≥ 90%; pest or weed control at 10 ppm [16]: ≥ 90%
COCCOC(=O)c1cn(C2CC2)c2cc(OC)ccc2c1=O [Compound 353] | ≥ 80 | ≥ 90 | ≥ 80 | ≥ 90 | ≥ 80 | ≥ 90 | ≥ 80 | ≥ 90 | ≥ 80 | ≥ 90 | ≥ 90 | ≥ 90 | safe for plant growth | ≥ 80 | ≥ 90 | ≥ 80 | ≥ 90 | ≥ 80 | ≥ 90 | ≥ 80 | inhibition at 5 ppm [11]: ≥ 90%; pest or weed control at 5 ppm [12]: ≥ 80%; pest or weed control at 10 ppm [12]: ≥ 90%; inhibition at 1 ppm [13]: ≥ 80%; inhibition at 5 ppm [13]: ≥ 90%; pest or weed control at 5 ppm [14]: ≥ 90%; pest or weed control at 10 ppm [14]: ≥ 90%; inhibition at 1 ppm [15]: ≥ 80%; inhibition at 5 ppm [15]: ≥ 90%; pest or weed control at 5 ppm [16]: ≥ 90%; pest or weed control at 10 ppm [16]: ≥ 90%
CSc1cc2c(cc1F)c(=O)c(C(=O)OCCO)cn2C1CC1 [Compound 371] | ≥ 90 | ≥ 90 | ≥ 90 | ≥ 90 | ≥ 90 | ≥ 90 | ≥ 90 | ≥ 90 | ≥ 90 | ≥ 90 | ≥ 90 | ≥ 90 | safe for plant growth | ≥ 90 | ≥ 90 | ≥ 90 | ≥ 90 | ≥ 90 | ≥ 90 | ≥ 90 | inhibition at 5 ppm [11]: ≥ 90%; pest or weed control at 5 ppm [12]: ≥ 90%; pest or weed control at 10 ppm [12]: ≥ 90%; inhibition at 1 ppm [13]: ≥ 90%; inhibition at 5 ppm [13]: ≥ 90%; pest or weed control at 5 ppm [14]: ≥ 90%; pest or weed control at 10 ppm [14]: ≥ 90%; inhibition at 1 ppm [15]: ≥ 90%; inhibition at 5 ppm [15]: ≥ 90%; pest or weed control at 5 ppm [16]: ≥ 90%; pest or weed control at 10 ppm [16]: ≥ 90%
CCOCOC(=O)c1cn(C2CC2)c2cc(OCC)c(F)cc2c1=O [Compound 312] | ≥ 90 | ≥ 90 | ≥ 90 | ≥ 90 | ≥ 90 | ≥ 90 | ≥ 90 | ≥ 90 | ≥ 90 | ≥ 90 | ≥ 90 | ≥ 90 | safe for plant growth | ≥ 90 | ≥ 90 | ≥ 90 | ≥ 90 | ≥ 80 | ≥ 90 | ≥ 90 | inhibition at 5 ppm [11]: ≥ 90%; pest or weed control at 5 ppm [12]: ≥ 80%; pest or weed control at 10 ppm [12]: ≥ 90%; inhibition at 1 ppm [13]: ≥ 90%; inhibition at 5 ppm [13]: ≥ 90%; pest or weed control at 5 ppm [14]: ≥ 90%; pest or weed control at 10 ppm [14]: ≥ 90%; inhibition at 1 ppm [15]: ≥ 90%; inhibition at 5 ppm [15]: ≥ 90%; pest or weed control at 5 ppm [16]: ≥ 90%; pest or weed control at 10 ppm [16]: ≥ 90%
